# Measured values reported in patent publication US9321782B2, “Process for preparation of novel 42-O-(heteroalkoxyalkyl) rapamicin compounds with anti-proliferative properties” (MERIL LIFE SCIENCES PVT. LTD., priority 2010, dated 2016).
# Columns and labels:
# [1] = Stability analysis (HPLC purity on storage) without BHT at various temperatures; type: physicochemical; conditions: without BHT
# Procedure: (§1) To check the purity of the 42-O-(heteroalkoxyalkyl) rapamycin compounds the following condition was followed by using High Performance Liquid Chromatography, Phenomenex Synergi Hydro-RP 80a (250×4.6 ) mm, 4 micron column. The mobile phase was 65:15:20 methanol:acetonitile:water mixture. The detector was set at 276 nm and the flow rate was adjusted to 1.5 mL/min. Column temperature was 40° C. 2.0 μg of 42-O-(heteroalkoxyalkyl) rapamycin compounds was injected onto the column in a volume of 5.0 μL methanol with run time of 50 min.
# The purity loss was higher at increased temperature, but there was no apparent change in the impurity profile. Table 2A presents the purity of various 42-O-(heteroalkoxyalkyl) rapamycin compounds at different time intervals and temperature conditions.
# [2] = Stability analysis (HPLC purity on storage) with various concentrations of BHT at 40° C.; type: physicochemical; conditions: sealed container
# Procedure: as §1
# The inventors have also conducted the stability study of various 42-O-(heteroalkoxyalkyl) rapamycin compounds as mentioned above using various BHT concentrations. The study was conducted at 40° C. temperature in sealed container for 8 weeks.
# 42-O-(heteroalkoxyalkyl) rapamycin compounds obtained as per procedure described in Example 1 are respectively added with anti-oxidant, namely Butylated Hydroxytoluene (or BHT), at a concentration of 0.1%, 0.2%, 0.5%, and 1.0% (w/w) based on 100% (w/w) of 42-O-(heteroalkoxyalkyl) rapamycin compounds in sealed container to study the stability at 40° C. temperature. […] The purity data with the addition of different amounts of anti-oxidant as added to 42-O-(tetrahydrofuran-3-yl) rapamycin compound, 42-O-(oxetan-3-yl) rapamycin compound and 42-O-(tetrahydropyran-3-yl) rapamycin compound checked at different time intervals are summarized in Table 2B as below mentioned.
smiles,measurement,setting,value
"COC1CC(C[C@H](C)[C@@H]2CC(=O)[C@H](C)/C=C(\C)C(O)[C@@H](OC)C(=O)[C@H](C)C[C@H](C)/C=C/C=C/C=C(\C)[C@@H](OC)C[C@@H]3CC[C@@H](C)[C@@](O)(O3)C(=O)C(=O)N3CCCC[C@H]3C(=O)O2)CCC1OC1CCCOC1 (stereo partly shown) [Merilimus-3, 42-O-(tetrahydropyran-3-yl) rapamycin]",Purity (%),"[1]; 5° C. (sealed), 00 weeks after synthesis",97.3%
same,Purity (%),"[1]; 5° C. (sealed), 02 weeks after synthesis",96.0%
same,Purity (%),"[1]; 5° C. (sealed), 04 weeks after synthesis",95.4%
same,Purity (%),"[1]; 5° C. (sealed), 08 weeks after synthesis",94.5%
same,Purity (%),"[1]; 5° C. (sealed), 12 weeks after synthesis",93.9%
same,Purity (%),"[1]; 25° C. (sealed), 00 weeks after synthesis",97.6%
same,Purity (%),"[1]; 25° C. (sealed), 02 weeks after synthesis",95.7%
same,Purity (%),"[1]; 25° C. (sealed), 04 weeks after synthesis",95.2%
same,Purity (%),"[1]; 25° C. (sealed), 08 weeks after synthesis",94.6%
same,Purity (%),"[1]; 25° C. (sealed), 12 weeks after synthesis",93.5%
same,Purity (%),"[1]; 25° C. (unsealed), 00 weeks after synthesis",97.0%
same,Purity (%),"[1]; 25° C. (unsealed), 02 weeks after synthesis",95.3%
same,Purity (%),"[1]; 25° C. (unsealed), 04 weeks after synthesis",94.5%
same,Purity (%),"[1]; 25° C. (unsealed), 08 weeks after synthesis",93.8%
same,Purity (%),"[1]; 25° C. (unsealed), 12 weeks after synthesis",93.1%
same,Purity (%),"[1]; 40° C. (sealed), 00 weeks after synthesis",97.5%
same,Purity (%),"[1]; 40° C. (sealed), 02 weeks after synthesis",94.4%
same,Purity (%),"[1]; 40° C. (sealed), 04 weeks after synthesis",93.7%
same,Purity (%),"[1]; 40° C. (sealed), 08 weeks after synthesis",92.3%
same,Purity (%),"[1]; 40° C. (sealed), 12 weeks after synthesis",91.6%
same,Purity (%),"[2]; BHT 0.0% (w/w), 0 week",97.5%
same,Purity (%),"[2]; BHT 0.0% (w/w), 2 weeks",94.4%
same,Purity (%),"[2]; BHT 0.0% (w/w), 4 weeks",93.7%
same,Purity (%),"[2]; BHT 0.0% (w/w), 8 weeks",92.3%
same,Purity (%),"[2]; BHT 0.1% (w/w), 0 week",97.5%
same,Purity (%),"[2]; BHT 0.1% (w/w), 2 weeks",95.9%
same,Purity (%),"[2]; BHT 0.1% (w/w), 4 weeks",94.3%
same,Purity (%),"[2]; BHT 0.1% (w/w), 8 weeks",93.6%
same,Purity (%),"[2]; BHT 0.2% (w/w), 0 week",97.6%
same,Purity (%),"[2]; BHT 0.2% (w/w), 2 weeks",96.3%
same,Purity (%),"[2]; BHT 0.2% (w/w), 4 weeks",95.6%
same,Purity (%),"[2]; BHT 0.2% (w/w), 8 weeks",94.1%
same,Purity (%),"[2]; BHT 0.5% (w/w), 0 week",97.3%
same,Purity (%),"[2]; BHT 0.5% (w/w), 2 weeks",96.5%
same,Purity (%),"[2]; BHT 0.5% (w/w), 4 weeks",95.9%
same,Purity (%),"[2]; BHT 0.5% (w/w), 8 weeks",94.5%
same,Purity (%),"[2]; BHT 1.0% (w/w), 0 week",97.4%
same,Purity (%),"[2]; BHT 1.0% (w/w), 2 weeks",96.6%
same,Purity (%),"[2]; BHT 1.0% (w/w), 4 weeks",95.6%
same,Purity (%),"[2]; BHT 1.0% (w/w), 8 weeks",94.9%
